Experimental data taken from patent US11014933B2 (priority 2018, dated 2021).
Where a name gives a salt, the structure may show the parent alone. Read-outs that look alike come from different tables or passages of the source.

What was measured:
MOR [1] = molecular target: T1, MOR (Mus musculus, UniProt P42866); conditions: for EC50: read-out: MOR 35S-GTP[γS] Binding EC50; for MOR 35S-GTP[γS] Binding % Emax of DAMGO: relative to 3 μM DAMGO
MOR [2] = molecular target: T1, MOR; test: Competition radioligand binding, MOR ([3H]naloxone); design: expressed in transfected cells; host or cells: CHO; conditions: CHO cell membranes
DOR [3] = molecular target: T2, DOR (Homo sapiens, UniProt P41143); test: biochemical; assay type: binding; design: expressed in transfected cells; host or cells: CHO
KOR [4] = molecular target: T3, KOR (Homo sapiens, UniProt P41145); test: biochemical; assay type: binding
T3 construct: expressed in transfected cells; host or cells: CHO

MOR [5] = molecular target: T1, MOR; test: Desensitization study: DAMGO-induced [35S]GTPγS binding after ligand pretreatment of mMOR-CHO cells; assay type: cell-based; design: expressed in transfected cells; host or cells: CHO
morphine-pelleted mice = test: Withdrawal study in morphine-pelleted mice
mouse μ opioid receptor = mouse μ opioid receptor (Mus musculus, UniProt P42866); test: Calcium mobilization assay in mMOR-CHO cells; assay type: cell-based
P-gp = test: Caco-2 bidirectional transport assay; conditions: human
Caco-2 monolayers [6] = test: Caco-2 bidirectional transport assay
C57BL/6J mice = test: Warm-water tail-withdrawal test with cumulative morphine dosing; assay type: in vivo, mouse
rat MOR = molecular target: T4, rat MOR (Rattus norvegicus, UniProt P33535); assay type: cell-based
T4 construct: expressed in transfected cells; host or cells: Neuro2A murine neuroblastoma cells (clones H38 and H16)

Swiss Webster mice = test: Tail immersion assay (agonism, and antagonism of morphine); assay type: in vivo, mouse; conditions: for AD50 (antagonism of morphine antinociception): 95% confidence level in brackets; for % MPE of morphine (10 mg/kg) in the presence of test compound (antagonism): test compound 10 mg/kg s.c., 5 min before morphine
MOR [7] = molecular target: T1, MOR; test: biochemical
MOR [8] = molecular target: T1, MOR; conditions: 24 h pretreatment (DAMGO, morphine 5 μM; nalbuphine, naltrexone 1 μM); previously published; cited from earlier work
DOR [9] = molecular target: T2, DOR; conditions: values from reference 44a/57a; cited from earlier work
MOR [10] = molecular target: T1, MOR; conditions: values from reference 44a/57a, cited from earlier work
MOR [11] = molecular target: T1, MOR; design: expressed in transfected cells; host or cells: CHO; conditions: read-out: Ki MOR; [3H]naloxone; values from reference 44a/57a; cited from earlier work
KOR [12] = molecular target: T3, KOR; conditions: values from reference 44a/57a; cited from earlier work
Caco-2 monolayers [13] = conditions: related study, cited from earlier work
[14] = read-out: MOR 35S-GTP[γS] Binding % Emax of DAMGO, relative to 3 μM DAMGO

T2 sequence (P41143 whole entry): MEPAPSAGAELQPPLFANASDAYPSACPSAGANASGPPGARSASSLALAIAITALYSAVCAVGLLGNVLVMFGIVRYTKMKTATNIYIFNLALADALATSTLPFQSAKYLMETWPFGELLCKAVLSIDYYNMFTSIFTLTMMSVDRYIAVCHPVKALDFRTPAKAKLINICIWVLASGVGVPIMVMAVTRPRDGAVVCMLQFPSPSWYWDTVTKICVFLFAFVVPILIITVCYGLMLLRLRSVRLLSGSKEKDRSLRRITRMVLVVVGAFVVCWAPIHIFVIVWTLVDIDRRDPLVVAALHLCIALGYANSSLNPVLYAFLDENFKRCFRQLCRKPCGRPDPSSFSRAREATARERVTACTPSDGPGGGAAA
T1 sequence (P42866 whole entry): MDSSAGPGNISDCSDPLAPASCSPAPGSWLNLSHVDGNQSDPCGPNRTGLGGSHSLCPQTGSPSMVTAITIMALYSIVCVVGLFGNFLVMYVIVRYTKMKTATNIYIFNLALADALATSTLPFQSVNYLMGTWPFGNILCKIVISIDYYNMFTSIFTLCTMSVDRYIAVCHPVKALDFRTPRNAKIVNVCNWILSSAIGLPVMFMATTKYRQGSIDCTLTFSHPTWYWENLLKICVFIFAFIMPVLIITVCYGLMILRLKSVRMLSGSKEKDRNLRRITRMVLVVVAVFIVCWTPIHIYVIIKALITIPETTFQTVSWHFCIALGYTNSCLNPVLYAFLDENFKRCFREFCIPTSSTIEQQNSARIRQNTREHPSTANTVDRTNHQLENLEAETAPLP
T3 sequence (P41145 whole entry): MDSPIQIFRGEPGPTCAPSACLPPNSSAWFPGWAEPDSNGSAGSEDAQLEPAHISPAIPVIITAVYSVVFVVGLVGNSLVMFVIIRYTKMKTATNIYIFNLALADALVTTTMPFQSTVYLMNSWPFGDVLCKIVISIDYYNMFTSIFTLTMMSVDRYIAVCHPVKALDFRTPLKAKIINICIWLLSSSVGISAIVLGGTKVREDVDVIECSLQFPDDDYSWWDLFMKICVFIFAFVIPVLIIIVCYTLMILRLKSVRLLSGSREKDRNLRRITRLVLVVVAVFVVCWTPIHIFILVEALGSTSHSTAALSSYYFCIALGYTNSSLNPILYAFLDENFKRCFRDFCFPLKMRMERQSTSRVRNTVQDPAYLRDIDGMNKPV
Sequence of mouse μ opioid receptor (P42866 whole entry): as the sequence (P42866 whole entry) above
T4 sequence (P33535 whole entry): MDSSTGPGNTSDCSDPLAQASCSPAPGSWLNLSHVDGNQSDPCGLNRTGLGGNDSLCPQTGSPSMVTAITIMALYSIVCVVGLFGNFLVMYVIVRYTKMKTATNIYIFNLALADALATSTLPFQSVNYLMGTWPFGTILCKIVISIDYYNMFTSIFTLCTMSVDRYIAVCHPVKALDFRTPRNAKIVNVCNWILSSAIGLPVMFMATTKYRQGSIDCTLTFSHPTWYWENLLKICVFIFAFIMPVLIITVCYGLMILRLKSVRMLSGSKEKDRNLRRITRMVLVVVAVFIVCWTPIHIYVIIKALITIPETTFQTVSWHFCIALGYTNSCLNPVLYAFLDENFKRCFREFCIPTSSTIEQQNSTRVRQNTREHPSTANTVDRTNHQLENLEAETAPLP

17-Cyclopropylmetyl-3,14β-dihydroxy-4,5α-epoxy-6β-[(3′-carboxyl-4′-pyridyl) acetamido]morphinan [Compound 5]
EC50 (MOR [1]; MOR-CHO membranes): 1.83 ± 0.18 nM | MOR 35S-GTP[γS] Binding % Emax of DAMGO (MOR [1]): 29.27 ± 1.42% | Ki (MOR [2]): 0.76 ± 0.08 nM | Selectivity δ/μ (DOR [3]): 73.2 | Ki (DOR [3]; read-out: Ki DOR): 55.6 ± 6.02 nM | Selectivity κ/μ (KOR [4]): 3.2 | Ki (KOR [4]; read-out: Ki KOR): 2.43 ± 0.19 nM

O=C(N[C@@H]1CCC2(O)C3Cc4ccc(O)c5c4[C@@]2(CCN3CC2CC2)[C@H]1O5)c1ccnc(Cl)c1 (some centres unmarked) (as salt: hydrochloride)
melting point: > 250 °C

O=C(N[C@@H]1CCC2(O)C3Cc4ccc(O)c5c4[C@@]2(CCN3CC2CC2)[C@H]1O5)c1ccnc(Br)c1 (some centres unmarked) (as salt: hydrochloride)
melting point: > 250 °C

Cc1cc(C(=O)N[C@@H]2CCC3(O)C4Cc5ccc(O)c6c5[C@@]3(CCN4CC3CC3)[C@H]2O6)ccn1 (some centres unmarked) (as salt: hydrochloride)
melting point: 248 °C (dec.)

COc1cc(C(=O)N[C@@H]2CCC3(O)C4Cc5ccc(O)c6c5[C@@]3(CCN4CC3CC3)[C@H]2O6)ccn1 (some centres unmarked) (as salt: hydrochloride)
melting point: 244 to 248 °C (dec.)

O=C(N[C@@H]1CC[C@@]2(O)[C@H]3Cc4ccc(O)c5c4[C@@]2(CCN3CC2CC2)[C@H]1O5)c1ccncc1F [Compound 1]
Emax of DAMGO-stimulated [35S]GTPγS binding after pretreatment (net) (MOR [5]; NFP 1 μM, 24 h pretreatment of mMOR-CHO cells): 156.20 ± 13.83 fmol/mg | Relative efficacy versus naltrexone (MOR [1]; mMOR-CHO membranes): ~3 fold | EC50 (MOR [1]; MOR-CHO membranes): 1.2 ± 0.19 nM | Wet dog shakes, jumps and paw tremors versus naloxone 1 mg/kg (morphine-pelleted mice; 10 mg/kg s.c., 20 min): significantly fewer wet dog shakes, jumps, and paw tremors | Jumps versus naloxone 1 mg/kg (morphine-pelleted mice; 50 mg/kg s.c.): significantly fewer jumps | Wet dog shakes and paw tremors versus naloxone 1 mg/kg (morphine-pelleted mice; 50 and 100 mg/kg s.c.): not significantly different from those of naloxone | IC50 (mouse μ opioid receptor): 76.1 ± 2.5 nM | EC50, Ca2+ signal (agonist mode) (mouse μ opioid receptor; mMOR-CHO cells transfected with Gαqi5, up to 3 μM): did not induce any apparent Ca^2+ signal | Ki (MOR [2]): 0.36 ± 0.02 nM | efflux ratio at 2 h, 20 μM (P-gp; Caco-2, pH 7.4): 7 ± 0.5 | efflux ratio at 2 h, 20 μM (P-gp; Caco-2, pH 7.4, with elacridar 1 μM): 1.3 ± 0.3 | P-gp substrate (Caco-2 monolayers [6]; Caco-2, with or without elacridar): may be a P-gp substrate | Papp, B-A (efflux) compared with Papp, A-B (absorption) (Caco-2 monolayers [6]; NFP 20 μM, 37° C., 2 h): much higher | Antinociception (% MPE) of morphine in NFP group relative to vehicle-treated group, Day 1 (C57BL/6J mice; NFP 0.3 mg/kg s.c. pretreatment, 10 mg/kg cumulative morphine, p=0.0013): significantly less antinociception | Antinociception (% MPE) of morphine in NFP group relative to Vehicle Group, Day 7 (C57BL/6J mice; after five days of 10 mg/kg morphine + 0.3 mg/kg NFP, 32 mg/kg cumulative morphine, p=0.0138): significantly less antinociception | Internalization of the MOR (rat MOR): did not | Ki (DOR [3]): 157 ± 7.81 nM | Ki (KOR [4]): 4.8 ± 0.26 nM | AD50 (antagonism of morphine antinociception) (Swiss Webster mice): 2.82 (1.34-5.94) mg/kg | % MPE of morphine (10 mg/kg) in the presence of test compound (antagonism) (Swiss Webster mice; listed as 1 (NFP)): antagonized morphine's antinociception effect significantly | % MPE of morphine (10 mg/kg) in the presence of test compound (antagonism) (Swiss Webster mice; listed as NFP): 6.2±2.4% | Emax (MOR [7]; read-out: Emax, stimulation of [35S]GTPγS binding (normalized to DAMGO), mMOR-CHO membranes, ligand alone, concentration-effect curve): 34.9 ± 1.5% | Emax (MOR [7]; [14]): 35 ± 3.07% | Emax (MOR [7]; read-out: Maximal inhibition (minimum) as % of maximal stimulation produced by DAMGO, in the presence of 0.3 μM DAMGO, mMOR-CHO membranes): 37.7 ± 1.5%

N#Cc1cnccc1C(=O)N[C@@H]1CC[C@@]2(O)[C@H]3Cc4ccc(O)c5c4[C@@]2(CCN3CC2CC2)[C@H]1O5 [Compound 2]
EC50 (MOR [1]; MOR-CHO membranes): 1.28 ± 0.2 nM | Wet dog shakes and jumps versus naloxone 1 mg/kg (morphine-pelleted mice; 1 mg/kg s.c.): significantly fewer wet dog shakes and jumps | Ki (MOR [2]): 0.87 ± 0.09 nM | Ki (DOR [3]): 46.3 ± 7.86 nM | Ki (KOR [4]): 2.74 ± 0.47 nM | % MPE of morphine (10 mg/kg) in the presence of test compound (antagonism) (Swiss Webster mice; listed as 2 (NYP)): antagonized morphine's antinociception effect significantly | % MPE of morphine (10 mg/kg) in the presence of test compound (antagonism) (Swiss Webster mice; listed as NYP): 7.8±5.4% | Emax (MOR [7]; [14]): 26.1 ± 0.74%

O=C(Cc1ccncc1C(F)(F)F)N[C@@H]1CC[C@@]2(O)[C@H]3Cc4ccc(O)c5c4[C@@]2(CCN3CC2CC2)[C@H]1O5 [Compound 4, 17-Cyclopropylmetyl-3,14β-dihydroxy-4,5α-epoxy-6β-[(3′-trifluromethyl-4′-pyridyl)acetamido]morphinan]
EC50 (MOR [1]; MOR-CHO membranes): 1.38 ± 0.2 nM | MOR 35S-GTP[γS] Binding % Emax of DAMGO (MOR [1]): 31.88 ± 3.39% | Ki (MOR [2]): 0.43 ± 0.01 nM | Selectivity δ/μ (DOR [3]): 143.7 | Ki (DOR [3]; read-out: Ki DOR): 61.8 ± 5 nM | Selectivity κ/μ (KOR [4]): 29.1 | Ki (KOR [4]; read-out: Ki KOR): 12.5 ± 0.89 nM

CC(C)Cc1cnccc1C(=O)N[C@@H]1CC[C@@]2(O)[C@H]3Cc4ccc(O)c5c4[C@@]2(CCN3CC2CC2)[C@H]1O5 [Compound 8]
MOR 35S-GTP[γS] Binding EC50 (MOR [1]; MOR-CHO membranes): lowest potency | EC50 (MOR [1]; MOR-CHO membranes): 19.7 ± 2.37 nM | Ki (MOR [2]): 7.2 ± 0.81 nM | Ki MOR (MOR [2]): nanomolar binding affinity | Ki (DOR [3]): 149 ± 16 nM | Ki (KOR [4]): 75.6 ± 3.87 nM | Emax (MOR [7]; [14]): 27.3 ± 0.25%

O=C(N[C@@H]1CC[C@@]2(O)[C@H]3Cc4ccc(O)c5c4[C@@]2(CCN3CC2CC2)[C@H]1O5)c1ccncc1C1CCCCC1 [Compound 10]
EC50 (MOR [1]; MOR-CHO membranes): 2.46 ± 0.3 nM | Ki (MOR [2]): 0.78 ± 0.09 nM | Ki (DOR [3]): 11.2 ± 1.91 nM | Ki (KOR [4]): 3.32 ± 0.54 nM | Emax (MOR [7]; [14]): 51.6 ± 3.73%

O=C(N[C@@H]1CC[C@@]2(O)[C@H]3Cc4ccc(O)c5c4[C@@]2(CCN3CC2CC2)[C@H]1O5)c1ccncc1-c1ccccc1 [Compound 12]
EC50 (MOR [1]; MOR-CHO membranes): 1.46 ± 0.18 nM | Ki (MOR [2]): 0.63 ± 0.05 nM | Ki (DOR [3]): 44.8 ± 3.7 nM | Ki (KOR [4]): 3.42 ± 0.38 nM | Emax (MOR [7]; [14]): 44.4 ± 3.12%

C[C@@H](NC(=O)[C@@H](N)Cc1ccc(O)cc1)C(=O)NCC(=O)N(C)[C@@H](Cc1ccccc1)C(=O)NCCO [DAMGO, reference compound]
Increase of DAMGO EC50 compared with vehicle treated group (MOR [5]; pretreated mMOR-CHO cells): ~4 fold | Emax of DAMGO-stimulated [35S]GTPγS binding after pretreatment (net) (MOR [8]): 121.62 ± 13.78 fmol/mg

Cc1cnccc1C(=O)N[C@@H]1CC[C@@]2(O)[C@H]3Cc4ccc(O)c5c4[C@@]2(CCN3CC2CC2)[C@H]1O5 [NMP, N-((4R,4aS,7R,7aR,12bS)-3-(cyclopropylmethyl)-4a,9-dihydroxy-2,3,4,4a,5,6,7,7a-octahydro-1H-4,12-methanobenzofuro[3,2-e]isoquinolin-7-yl)-3-methylisonicotinamide]
Selectivity δ/μ (DOR [9]): 470 | EC50 (MOR [10]; read-out: MOR 35S-GTP[γS] Binding EC50): 1.52 ± 0.26 nM | MOR 35S-GTP[γS] Binding % Emax of DAMGO (MOR [10]): 30.63 ± 0.55% | Ki (MOR [11]): 0.58 ± 0.25 nM | Selectivity κ/μ (KOR [12]): 166

C[C@H]1O[C@@H](O[C@H]2[C@@H](O)C[C@H](O[C@H]3[C@@H](O)C[C@H](O[C@H]4CC[C@@]5(C)[C@H](CC[C@@H]6[C@@H]5C[C@@H](O)[C@]5(C)[C@@H](C7=CC(=O)OC7)CC[C@]65O)C4)O[C@@H]3C)O[C@@H]2C)C[C@H](O)[C@@H]1O [digoxin]
PDR (Caco-2 monolayers [13]; after elacridar was added): 1.2 | PDR (Caco-2 monolayers [13]; without elacridar): 5.1

C=CCN1CC[C@]23c4c5ccc(O)c4O[C@H]2C(=O)CC[C@@]3(O)[C@H]1C5 [naloxone, reference compound]
AD50 (antagonism of morphine antinociception) (Swiss Webster mice): 0.05 mg/kg
